Test results published in US9708336B2, “Metallo-beta-lactamase inhibitors” (priority 2014, dated 2017).
Read-outs that look alike come from different tables or passages of the source.

Legend:
[1] = biological target: NDM-1 (Klebsiella pneumoniae, UniProt C7C422); test: biochemical; assay type: biochemical; details: NDM-1 enzyme, CCF2-FA fluorescence assay; read-out: NDM-1 IC50
[2] = system: Klebsiella pneumoniae expressing VIM-1 (IHMA599644); test: Antibiotic potentiation activity: synergistic concentration (MITC95) with imipenem, OD600 growth; assay type: cell-based; details: Klebsiella pneumoniae expressing VIM-1 (IHMA599644), 95% growth inhibition
Method in brief: (§1)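 Overnight colonies (35 °C) were suspended in saline, diluted 1:100 into 1.1× CAMHB, and exposed to test compound with imipenem at 4 μg/ml (optionally 1 μg/ml) in assay. After 22–24 h at 35 °C, growth was read by absorbance.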

[3] = system: Serratia marcescens expressing IMP-1 (CL5741); test: as above; assay type: cell-based; details: Serratia marcescens expressing IMP-1 (CL5741), 95% growth inhibition
Method in brief: as §1

[4] = system: Escherichia coli expressing NDM-1 (CLB30016); test: as above; assay type: cell-based; details: Escherichia coli expressing NDM-1 (CLB30016), 95% growth inhibition
Method in brief: as §1

[5] = biological target: IMP-1 (Serratia marcescens, UniProt P52699); test: biochemical; assay type: biochemical; details: IMP-1 enzyme, CCF2-FA fluorescence assay; read-out: IMP-1 IC50
[6] = biological target: VIM-1 (Pseudomonas aeruginosa (strain ATCC 15692 / DSM 22644 / CIP 104116 / JCM 14847 / LMG 12228 / 1C / PRS 101 / PAO1), UniProt A0A0F7KYQ8); test: Enzyme activity: determination of IC50, fluorescence assay with CCF2-FA substrate (VIM-1); assay type: biochemical; details: CCF2-FA fluorescence assay
[7] = VIM-1 enzyme, read-out: VIM-1 IC50

Chain of IMP-1 (P52699 whole entry, looked up): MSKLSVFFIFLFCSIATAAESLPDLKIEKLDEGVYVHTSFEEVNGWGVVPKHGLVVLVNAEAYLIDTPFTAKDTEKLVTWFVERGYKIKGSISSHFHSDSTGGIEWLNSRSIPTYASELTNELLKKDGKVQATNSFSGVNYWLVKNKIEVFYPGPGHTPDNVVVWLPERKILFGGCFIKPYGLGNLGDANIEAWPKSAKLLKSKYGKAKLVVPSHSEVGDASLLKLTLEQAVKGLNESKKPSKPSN
Chain of NDM-1 (C7C422 whole entry, looked up, species assumed): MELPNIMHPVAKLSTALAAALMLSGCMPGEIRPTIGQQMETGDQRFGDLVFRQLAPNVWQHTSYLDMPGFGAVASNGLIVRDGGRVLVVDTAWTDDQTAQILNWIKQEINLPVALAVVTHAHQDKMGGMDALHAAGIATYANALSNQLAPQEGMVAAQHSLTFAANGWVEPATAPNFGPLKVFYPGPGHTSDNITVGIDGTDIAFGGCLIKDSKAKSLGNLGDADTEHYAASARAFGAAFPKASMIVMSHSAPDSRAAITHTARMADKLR

Compound	IC50 [1]	Klebsiella pneumoniae MITC95 [2]	Serratia marcescens MITC95 [3]	Escherichia coli MITC95 [4]	IC50 [5]	IC50 [6, 7]	IC50 ([6]; VIM-1 IC50, VIM-1 enzyme)
NS(=O)(=O)c1c(CCC2CNC2)ccc(-c2ccc(C3CCNCC3)cc2)c1-c1nn[nH]n1 [Example 466, 4-(2-(azetidin-3-yl)ethyl)-4′-(piperidin-4-yl)-2-(2H-tetrazol-5-yl)-[1,1′-biphenyl]-3-sulfonamide]	10.5 nM	1.563 µM	1.563 µM	0.7813 µM	54.6 nM	3.72 nM	
NS(=O)(=O)c1c(CC2(F)CCNC2)ccc(-c2ccc(C3CCNCC3)cc2)c1-c1nn[nH]n1 (stereo not drawn) [Example 467, 4-((3-fluoropyrrolidin-3-yl)methyl)-4′-(piperidin-4-yl)-2-(2H-tetrazol-5-yl)-[1,1′-biphenyl]-3-sulfonamide]	10.2 nM	1.563 µM	1.563 µM	0.7813 µM	34.8 nM	4.75 nM	
NS(=O)(=O)c1c(CC2CCNC2)ccc(-c2ccc(C3CCNCC3)cc2)c1-c1nn[nH]n1 (stereo not drawn) [Example 468, 4′-(piperidin-4-yl)-4-(pyrrolidin-3-ylmethyl)-2-(2H-tetrazol-5-yl)-[1,1′-biphenyl]-3-sulfonamide]	9.95 nM	1.563 µM	1.563 µM	0.7813 µM	13.5 nM	3.81 nM	
NS(=O)(=O)c1c(CC2CNC2)ccc(-c2ccc(C3CCNCC3)cc2)c1-c1nn[nH]n1 [Example 469, 4-(azetidin-3-ylmethyl)-4′-(piperidin-4-yl)-2-(2H-tetrazol-5-yl)-[1,1′-biphenyl]-3-sulfonamide]	10.7 nM	1.563 µM	1.563 µM	0.7813 µM	29.7 nM	7.65 nM	
NS(=O)(=O)c1c(CC2CCNCC2)ccc(-c2ccc(C3CCN(CC4CNC4)CC3)cc2)c1-c1nn[nH]n1 [Example 470, 4′-(1-(azetidin-3-ylmethyl)piperidin-4-yl)-4-(piperidin-4-ylmethyl)-2-(2H-tetrazol-5-yl)-[1,1′-biphenyl]-3-sulfonamide]	27 nM	12.5 µM	1.563 µM	0.7813 µM	3.23 nM	101 nM	
NS(=O)(=O)c1c(CC2CCN(CC3CNC3)CC2)ccc(-c2ccc(C3CCNCC3)cc2)c1-c1nn[nH]n1 [Example 471, 4-((1-(azetidin-3-ylmethyl)piperidin-4-yl)methyl)-4′-(piperidin-4-yl)-2-(2H-tetrazol-5-yl)-[1,1′-biphenyl]-3-sulfonamide]	2.72 nM	1.563 µM	1.563 µM	0.7813 µM	8.68 nM	2.05 nM	
N=C(N)NC1CCC(CCc2ccc(-c3ccc(C4CCN(C(=N)N)CC4)cc3)c(-c3nn[nH]n3)c2S(N)(=O)=O)CC1 (stereo not drawn) [Example 472, 4-(4′-(2-(4-guanidinocyclohexyl)ethyl)-3′-sulfamoyl-2′-(2H-tetrazol-5-yl)-[1,1′-biphenyl]-4-yl)piperidine-1-carboximidamide]	0.505 nM	75 µM	0.7813 µM	1.172 µM	0.661 nM		13.4 nM
NS(=O)(=O)c1c(CCC(F)(F)F)ccc(-c2ccc(C3CCNCC3)cc2)c1-c1nn[nH]n1 [Example 473, 4′-(piperidin-4-yl)-2-(2H-tetrazol-5-yl)-4-(3,3,3-trifluoropropyl)-[1,1′-biphenyl]-3-sulfonamide]	4.47 nM	4.688 µM	0.5859 µM	4.688 µM	7.3 nM	1.42 nM	
NS(=O)(=O)c1c(C(F)(F)F)ccc(-c2cnc3cc[nH]c3c2)c1-c1nnn[nH]1 [Example 474, 3-(1H-pyrrolo[3,2-b]pyridin-6-yl)-2-(1H-tetrazol-5-yl)-6-(trifluoromethyl)benzenesulfonamide]	0.523 nM	1.531 µM	0.4453 µM	0.09375 µM	3.91 nM	0.549 nM	
Nc1ncc(-c2ccc(C(F)(F)F)c(S(N)(=O)=O)c2-c2nnn[nH]2)cn1 [Example 475, 3-(2-aminopyrimidin-5-yl)-2-(1H-tetrazol-5-yl)-6-(trifluoromethyl)benzenesulfonamide]	5.13 nM	3.125 µM	0.7813 µM	0.7813 µM	13.7 nM		1.92 nM
Nc1ncc(-c2ccc(C(F)(F)F)c(S(N)(=O)=O)c2-c2nnn[nH]2)cc1F [Example 476, 3-(6-amino-5-fluoro-3-pyridyl)-2-(1H-tetrazol-5-yl)-6-(trifluoromethyl)benzenesulfonamide]	1.79 nM	1.563 µM	0.5859 µM	1.563 µM	3.98 nM	0.263 nM	
Nc1n[nH]c2cc(-c3ccc(C(F)(F)F)c(S(N)(=O)=O)c3-c3nnn[nH]3)ccc12 [Example 477, 3-(3-amino-1H-indazol-6-yl)-2-(1H-tetrazol-5-yl)-6-(trifluoromethyl)benzenesulfonamide]	1.01 nM	6.25 µM	0.5859 µM	0.7813 µM	6.38 nM	0.722 nM	
Nc1ccnc2cc(-c3ccc(C(F)(F)F)c(S(N)(=O)=O)c3-c3nnn[nH]3)ccc12 [Example 478, 3-(4-amino-7-quinolyl)-2-(1-tetrazol-5-yl)-6-(trifluoromethyl)benzenesulfonamide]	24.6 nM	0.7813 µM	2.344 µM	0.7813 µM	88.1 nM	0.639 nM	
Nc1ccnc2ccc(-c3ccc(C(F)(F)F)c(S(N)(=O)=O)c3-c3nnn[nH]3)cc12 [Example 479, 3-(4-amino-6-quinolyl)-2-(1H-tetrazol-5-yl)-6-(trifluoromethyl)benzenesulfonamide]	6.66 nM	0.7813 µM	1.563 µM	0.3906 µM	30.3 nM	0.373 nM	
Nc1n[nH]c2ccc(-c3ccc(C(F)(F)F)c(S(N)(=O)=O)c3-c3nnn[nH]3)cc12 [Example 480, 3-(3-amino-1H-indazol-5-yl)-2-(1H-tetrazol-5-yl)-6-(trifluoromethyl)benzenesulfonamide]	0.871 nM	2.344 µM	0.7813 µM	0.7813 µM	9.14 nM	0.264 nM	
N=C(N)c1nc2c(-c3ccc(C(F)(F)F)c(S(N)(=O)=O)c3-c3nnn[nH]3)cccc2s1 [Example 482, 4-(3-Sulfamoyl-2-(1H-tetrazol-5-yl)-4-(trifluoromethyl)phenyl)benzo[d]thiazole-2-carboximidamide]	0.889 nM	3.125 µM	3.125 µM	1.563 µM	7.24 nM	0.194 nM	
